Results taken from US9079891B2, “Compounds that modulate intracellular calcium” (CALCIMEDICA, INC., priority 2010, dated 2015).
Like-named read-outs stand apart in the source and are kept apart here.

Key:
[1] = target: T1, recombinant human STIM1 and Orai1 (Homo sapiens, UniProt Q96D31); experiment: Fluorescence-based assay of store-operated calcium entry in Orai1/STIM1 stable cells (FLIPR); type: cell-based; conditions: for IC50: HEK-293 cells stably expressing human Orai1/STIM1, Fluo-4, Peak-Basal signal, read-out: FLIPR_CRAC: 9 point CRC: O1S1_JR251: IC50: Peak_over_Basal
T1 construct: c-myc (C); expressed in transfected cells; host or cells: HEK-293 cells stably expressing human STIM1 and human Orai1
T1 sequence (Q96D31 whole entry): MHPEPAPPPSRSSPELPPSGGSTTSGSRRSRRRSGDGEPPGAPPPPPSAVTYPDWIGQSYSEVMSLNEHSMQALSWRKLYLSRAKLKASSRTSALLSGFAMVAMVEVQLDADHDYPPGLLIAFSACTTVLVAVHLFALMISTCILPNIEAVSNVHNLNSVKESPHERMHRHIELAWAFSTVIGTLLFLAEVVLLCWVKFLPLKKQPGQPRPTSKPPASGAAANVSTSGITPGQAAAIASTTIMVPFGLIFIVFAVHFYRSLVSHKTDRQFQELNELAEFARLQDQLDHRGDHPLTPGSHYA
Description: A. Fluorescence-Based Assay of Store-Operated Calcium Entry in Orai1/Stim1 Stable Cells.
Cells stably expressing recombinant human STIM1 and Orai1 are generated by transfecting a human Orai1 expression plasmid (pcDNA3.1-Orai1-cmyc) into HEK-293 cells stably overexpressing human STIM1 (Roos et al. 2005 JCB 169(3): 435-445). Colonies of cells stably expressing both STIM1 and Orai1 proteins are selected and then subcloned by limiting dilution. Cells were cultured at 37° C./6% CO2 in complete medium with 10% FBS and appropriate selection markers.
The day prior to performing the assay Orai1/STIM1 stable cells are plated in 50 μL of complete medium at 90-95% confluence in a 384 well plate. Cells are grown at 37° C./6% CO2 overnight. On the day of the assay, 1.5 μM fluo-4-AM (Invitrogen) in complete medium is added to the cells, which are then incubated for 1 hour at RT. Cells are washed once in Ca^2+-free HBSS (Hank's buffered saline solution) and 35 μl of Ca^2+-free HBSS is added to each well. Test compounds are added to wells in a 10 μL Ca^2+-free HBSS solution, prepared at 4.5× the desired final concentration, and incubated for 30 minutes at RT. The initial baseline fluorescence signal is then measured with a FLIPR^384 (Molecular Devices) plate reader. Calcium entry is initiated by adding 5 μl of 10×CaCl2 (10 mM) in HBSS, and changes in cellular fluorescence are measured with the FLIPR^384 plate reader. In each well, the magnitude of the fluorescence signal as a result of calcium entry into the cell is determined by calculating the difference between the peak fluorescence signal measured after calcium addition and the initial baseline fluorescence signal (designated Peak-Basal). IC50 values are typically calculated as the concentration that inhibited 50% of the Peak-Basal signal.

[2] = tested on: RBL-2H3 cells; experiment: Fluorescence-based assay of store-operated calcium entry in RBL-2H3 cells (FLIPR, thapsigargin); type: cell-based, rat; conditions: Fluo-4, Upslope 0-7 sec, read-out: FLIPR_CRAC: 9 pt CRC - Fluo4_TG-D: RBL-2H3: IC50: Upslope 0-7 sec
Description: B. Fluorescence-Based Assay of Store-Operated Calcium Entry in RBL-2H3 Cells.
RBL-2H3 cells are obtained from ATCC and maintained in complete medium with 10% FBS at 37° C./6% CO2.
The day prior to performing the assay, RBL-2H3 cells are plated in 50 μl of complete medium in a 384 well plate. Cells are grown at 37° C./6% CO2 overnight and grow to 50-60% confluence by the next day. On the assay day, 1.5 μM Fluo-4-AM dye (Invitrogen) in complete medium is added and incubated for 1 hour at RT. Cells are washed twice in Ca^2+-free HBSS buffer and 35 μl Ca^2+-free HBSS buffer is added to each well. 10 μl of a test compound prepared in a Ca^2+-free HBSS solution at 4.5× of the desired concentration is added to a well and incubated for 5 minutes at RT. 10 μl of thapsigargin prepared in a Ca^2+-free HBSS solution at 5.5× of the desired concentration (5.5 uM) is added to each well and incubated for an additional 25 minutes. The initial baseline fluorescence signal is measured with a FLIPR^384 (Molecular Devices) plate reader. 5 μl of 12× calcium in HBSS (12 mM) is added and changes in cellular fluorescence are measured with the FLIPR^384 plate reader. In each well, the change in the fluorescent signal as a function of time due to calcium entry into the cell is determined by calculating the difference between the fluorescent signal measured 7 seconds after calcium addition and the initial baseline fluorescence signal at time zero (t=0). This parameter is designated Upslope. The IC50 value is calculated as the concentration at which 50% of the Upslope is inhibited.

IC50 [1]	IC50 ([2]; Rattus norvegicus)	FLIPR_CRAC: 9 point CRC: O1S1_JR251: efficacy ([1]; printed in the IC50 column in place of a class symbol)	IC50 [2]	Compound
0.6 to 1.2 µM	< 0.6 µM	–	–	O=C(Nc1ccccc1Cl)c1ccc(-c2cc3scnc3cc2Cl)s1 [Example 8, N-(2-chlorophenyl)[5-(5-chlorobenzothiazol-6-yl)(2-thienyl)]carboxamide]
0.6 to 1.2 µM	< 0.6 µM	–	–	Cc1cc2cnn(C)c2cc1-c1ccc(C(=O)Nc2ccccc2F)s1 [Example 12]
0.6 to 1.2 µM	< 0.6 µM	–	–	Cc1cc2cn(C)nc2cc1-c1ccc(C(=O)Nc2ccccc2Cl)s1 [Example 14]
> 1.2 µM	< 0.6 µM	–	–	Cn1c(-c2cnc(NC(=O)c3ccccc3Cl)s2)cc2ccccc21 [Example 22, (2-chlorophenyl)-N-[5-(1-methylindol-2-yl)(1,3-thiazol-2-yl)]carboxamide]
> 1.2 µM	0.6 to 1.2 µM	–	–	CC(C)n1nc(C(F)(F)F)cc1-c1cnc(NC(=O)c2ccccc2Cl)s1 [Example 25, (2-chlorophenyl)-N-{5-[1-(methylethyl)-3-(trifluoromethyl)pyrazol-5-yl](1,3-thiazol-2-yl)}carboxamide]
–	–	<50% efficacy	< 0.6 µM	Cc1cccnc1C(=O)Nc1ncc(-c2cc(C(F)(F)F)nn2C)s1 [Example 26, (3-methyl(2-pyridyl))-N-{5-[1-methyl-3-(trifluoromethyl)pyrazol-5-yl](1,3-thiazol-2-yl)}carboxamide]
> 1.2 µM	> 1.2 µM	–	–	Cn1nc(C(F)(F)F)cc1-c1ncc(NC(=O)c2ccccc2Cl)s1 [Example 29, (2-chlorophenyl)-N-{2-[1-methyl-3-(trifluoromethyl)pyrazol-5-yl](1,3-thiazol-5-yl)}carboxamide]
0.6 to 1.2 µM	0.6 to 1.2 µM	–	–	Cn1nc(-c2ccccc2)cc1-c1ccc(C(=O)Nc2ncccc2F)s1 [Example 45]
> 1.2 µM	–	–	–	Cn1nc(-c2cccs2)cc1-c1ccc(C(=O)Nc2ccccc2Cl)s1 [Example 65]

The remaining lines, values behind:

Compound	IC50 [1]	IC50 ([2]; Rattus norvegicus)	FLIPR_CRAC: 9 point CRC: O1S1_JR251: efficacy ([1]; printed in the IC50 column in place of a class symbol)	IC50 [2]
Cc1cc2cn(C)nc2cc1-c1ccc(C(=O)Nc2c(F)cccc2F)s1 [Example 15]	0.6 to 1.2 µM	–	–	–
Cc1nc(-c2cc(-c3ccc(C(=O)Nc4c(F)cccc4F)s3)n(C)n2)no1 [Example 16, N-(2,6-difluorophenyl){5-[1-methyl-3-(5-methyl(1,2,4-oxadiazol-3-yl))pyrazol-5-yl](2-thienyl)}carboxamide]	0.6 to 1.2 µM	–	–	–
Cc1nc(-c2cc(-c3ccc(C(=O)Nc4ccccc4F)s3)n(C)n2)no1 [Example 17, N-(2-fluorophenyl){5-[1-methyl-3-(5-methyl(1,2,4-oxadiazol-3-yl))pyrazol-5-yl](2-thienyl)}carboxamide]	0.6 to 1.2 µM	< 0.6 µM	–	–
Cc1nc(-c2cc(-c3cnc(NC(=O)c4ccccc4Cl)s3)n(C)n2)no1 [Example 18, (2-chlorophenyl)-N-{5-[1-methyl-3-(5-methyl(1,2,4,-oxadiazol-3-yl))pyrazol-5-yl](1,3-thiazol-2-yl)}carboxamide]	> 1.2 µM	–	–	–
Cn1nc(C(F)(F)F)cc1-c1sc(C(=O)Nc2c(F)cccc2F)cc1N [Example 30, {4-Amino-5-[1-methyl-3-(trifluoromethyl)pyrazol-5-yl](2-thienyl)}-N-(2,6-difluorophenyl)carboxamide]	> 1.2 µM	–	–	–
Cn1nc(-c2nccs2)cc1-c1ccc(C(=O)Nc2c(F)cccc2F)s1 [Example 49, (2,6-difluorophenyl)[5-(1-methyl-3-(1,3-thiazol-2-yl)pyrazol-5-yl](2-thienyl)]carboxamide]	< 0.6 µM	< 0.6 µM	–	–
Cn1nc(-c2nccs2)cc1-c1ccc(C(=O)Nc2c(F)cncc2F)s1 [Example 50]	0.6 to 1.2 µM	< 0.6 µM	–	–
Cn1nc(-c2nccs2)cc1-c1ccc(C(=O)Nc2ncccc2F)s1 [Example 52]	0.6 to 1.2 µM	0.6 to 1.2 µM	–	–
Cn1nc(-c2cccs2)cc1-c1ccc(C(=O)Nc2c(F)cccc2F)s1 [Example 63, N-(2,6-difluorophenyl)[5-(1-methyl-3-(2-thienyl)pyrazol-5-yl](2-thienyl)]carboxamide]	> 1.2 µM	–	–	–
